Test results: article PMC12669672, “Structural insights into selective and dual antagonism of EP2 and EP4 prostaglandin receptors” (The EMBO Journal, 2025)
“And” between values parts separate entries of the source, which are not always exact repeats. Equal entries are not always repeated. “Also recorded” adds a separate entry of the source. Where two headings read alike, the source gives them in different places.

Experiments:
Format in all cases: cell-based
[1] = biological target: T1, constitutively active EP2 S305A (Homo sapiens, UniProt P43116, S305A); experiment: GloSensor cAMP assay, inhibition of constitutive activity; details: for cAMP activity (∆pIC50 from EP2 WT): PF-04418948, S305A
T1 construct: The full-length EP2 or EP4 was cloned into the pcDNA3.1 vector; FLAG (N); expressed in transfected cells; host or cells: AD293 cells
T1 sequence (P43116 whole entry S305A): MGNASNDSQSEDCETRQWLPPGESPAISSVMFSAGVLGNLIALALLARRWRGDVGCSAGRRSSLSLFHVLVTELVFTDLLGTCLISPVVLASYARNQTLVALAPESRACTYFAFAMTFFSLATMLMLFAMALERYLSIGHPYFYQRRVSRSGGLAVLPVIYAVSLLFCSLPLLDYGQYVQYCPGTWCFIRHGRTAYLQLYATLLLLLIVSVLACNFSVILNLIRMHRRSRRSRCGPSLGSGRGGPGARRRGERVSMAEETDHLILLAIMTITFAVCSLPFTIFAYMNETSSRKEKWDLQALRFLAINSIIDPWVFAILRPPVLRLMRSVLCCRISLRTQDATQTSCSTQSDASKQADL
Method: (§1) The full-length EP2 or EP4 was cloned into the pcDNA3.1 vector (Invitrogen), incorporating an N-terminal FLAG tag. AD293 cells were seeded in six-well plates containing DMEM supplemented with 10% dialyzed FBS 1 day prior to transfection. Following overnight growth, cells were transfected with a 1:1 ratio of receptor construct and GloSensor22F cAMP biosensor (Promega) plasmids.
(§2) Twenty-four hours post-transfection, the cells were transferred to CO2-independent media containing 2% GloSensor cAMP Reagent (Promega) and distributed into 384-well assay plates at a density of 4000 cells per well in 10 μL. […] The plates were then incubated at 37 °C for an additional hour before luminescence measurements were taken using an EnVision plate reader.
(§3) Data analysis was performed using GraphPad Prism software v8.0.1. A nonlinear regression analysis, employing a sigmoidal dose–response model, was conducted to determine the Emax values and half-maximum inhibitory concentrations (IC50) for each compound tested.

[2] = biological target: T2, constitutively active EP2 WT (Homo sapiens, UniProt P43116); experiment: as above
T2 construct: The full-length EP2 or EP4 was cloned into the pcDNA3.1 vector; FLAG (N); expressed in transfected cells; host or cells: AD293 cells
T2 sequence (P43116 whole entry): as the sequence (P43116 whole entry S305A) above, with A305S counted along it
Method: as §1, §2, §3

[3] = biological target: T3, constitutively active EP2 S308A (Homo sapiens, UniProt P43116, S308A); experiment: as above
T3 construct: The full-length EP2 or EP4 was cloned into the pcDNA3.1 vector; FLAG (N); expressed in transfected cells; host or cells: AD293 cells
T3 sequence (P43116 whole entry S308A): as the sequence (P43116 whole entry S305A) above, with A305S, S308A counted along it
Method: as §1, §2, §3

[4] = biological target: T4, constitutively active EP2 W186A (Homo sapiens, UniProt P43116, W186A); experiment: as above
T4 construct: The full-length EP2 or EP4 was cloned into the pcDNA3.1 vector; FLAG (N); expressed in transfected cells; host or cells: AD293 cells
T4 sequence (P43116 whole entry W186A): as the sequence (P43116 whole entry S305A) above, with W186A, A305S counted along it
Method: as §1, §2, §3

[5] = biological target: T5, constitutively active EP2 S86A (Homo sapiens, UniProt P43116, S86A); experiment: as above; details: for cAMP activity (∆pIC50 from EP2 WT): PF-04418948, S86A
T5 construct: The full-length EP2 or EP4 was cloned into the pcDNA3.1 vector; FLAG (N); expressed in transfected cells; host or cells: AD293 cells
T5 sequence (P43116 whole entry S86A): as the sequence (P43116 whole entry S305A) above, with S86A, A305S counted along it
Method: as §1, §2, §3

EP2 WT = EP2 WT (Homo sapiens, UniProt P43116); experiment: GloSensor cAMP assay, antagonism of PGE2-induced cAMP; design: The full-length EP2 or EP4 was cloned into the pcDNA3.1 vector; FLAG (N); expressed in transfected cells; host or cells: AD293 cells; details: for remaining activity at 0.1 µM / remaining activity at 0.01 µM / remaining activity at 0.001 µM / remaining activity at 0.0001 µM / remaining activity at 10 pM / remaining activity at 1 pM / remaining activity at 10 µM / remaining activity at 1 µM: 1 h; for remaining activity at 0.1 µM / remaining activity at 0.01 µM / remaining activity at 0.001 µM / remaining activity at 0.0001 µM / remaining activity at 10 pM / remaining activity at 1 pM / remaining activity at 10 µM / remaining activity at 1 µM / cAMP activity (∆pIC50 from EP2 WT): single experiments 1st-3rd
Chain of EP2 WT (P43116 whole entry): as the sequence (P43116 whole entry S305A) above, with A305S counted along it
Method: as §1, §2, §3

EP4 WT = biological target: T6, EP4 WT (Homo sapiens, UniProt P35408); experiment: as above; details: 1 h, single experiments 1st-3rd, Fig. S1A
T6 construct: The full-length EP2 or EP4 was cloned into the pcDNA3.1 vector; FLAG (N); expressed in transfected cells; host or cells: AD293 cells
T6 sequence (P35408 whole entry): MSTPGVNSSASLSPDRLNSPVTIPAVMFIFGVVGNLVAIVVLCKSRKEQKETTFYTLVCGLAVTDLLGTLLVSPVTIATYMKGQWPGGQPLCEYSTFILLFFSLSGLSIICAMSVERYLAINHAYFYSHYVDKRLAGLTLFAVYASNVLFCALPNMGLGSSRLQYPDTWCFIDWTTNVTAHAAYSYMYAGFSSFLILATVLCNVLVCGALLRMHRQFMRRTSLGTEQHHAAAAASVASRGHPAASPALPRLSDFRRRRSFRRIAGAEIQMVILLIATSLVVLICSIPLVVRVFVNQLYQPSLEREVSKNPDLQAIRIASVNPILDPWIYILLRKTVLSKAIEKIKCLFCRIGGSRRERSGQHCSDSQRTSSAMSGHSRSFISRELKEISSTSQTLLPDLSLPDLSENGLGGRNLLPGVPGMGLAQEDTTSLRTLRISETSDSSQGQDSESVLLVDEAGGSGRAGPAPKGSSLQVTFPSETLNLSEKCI
Method: as §1, §2, §3

[6] = no PGE2, pIC50 mutant - pIC50 WT, mean
[7] = 1 h, PF-04418948 log([M]) -8.00, read-out: % cAMP activity (normalized to WT)
[8] = 1 h, PF-04418948 log([M]) -9.00, read-out: % cAMP activity (normalized to WT)
[9] = 1 h, PF-04418948 log([M]) -10.00, read-out: % cAMP activity (normalized to WT)
[10] = 1 h, PF-04418948 log([M]) -11.00, read-out: % cAMP activity (normalized to WT)
[11] = 1 h, PF-04418948 log([M]) -12.00, read-out: % cAMP activity (normalized to WT)
[12] = 1 h, PF-04418948 log([M]) -6.00, read-out: % cAMP activity (normalized to WT)

## COc1ccc2cc(OCC3(C(=O)O)CN(C(=O)c4ccc(F)cc4)C3)ccc2c1 [PF-04418948]
[1]; Mean
  cAMP activity (∆pIC50 from EP2 WT): -1.012
[1]; single experiments 1st-3rd
  cAMP activity (∆pIC50 from EP2 WT): -1.044 and -1.010 and -0.982
[1]; [6]
  ΔpIC50: -1.01 ± 0.02
[2]; 1 h, PF-04418948 log([M]) -7.00, read-out: % cAMP activity (normalized to WT)
  remaining activity at 0.1 µM: 10.6%
[2]; [7]
  remaining activity at 0.01 µM: 44.6%
[2]; [8]
  remaining activity at 0.001 µM: 89.9%
[2]; [9]
  remaining activity at 0.0001 µM: 92.4%
[2]; [10]
  remaining activity at 10 pM: 102%
[2]; [11]
  remaining activity at 1 pM: 104%
[2]; PF-04418948, WT, single experiments 1st-3rd
  cAMP activity (∆pIC50 from EP2 WT): -0.051 and 0.118 and -0.068
[3]; [7]
  remaining activity at 0.01 µM: 45.3%
[3]; [8]
  remaining activity at 0.001 µM: 80.9%
[3]; [9]
  remaining activity at 0.0001 µM: 93%
[3]; [10]
  remaining activity at 10 pM: 84.1%
[3]; [11]
  remaining activity at 1 pM: 68.1%
[3]; PF-04418948, S308A, Mean
  cAMP activity (∆pIC50 from EP2 WT): -0.283
[3]; [6]
  ΔpIC50: -0.28 ± 0.10
[4]; [12]
  remaining activity at 1 µM: 49.1%
[4]; [7]
  remaining activity at 0.01 µM: 95.7%
[4]; [8]
  remaining activity at 0.001 µM: 94.5%
[4]; [9]
  remaining activity at 0.0001 µM: 103%
[4]; [10]
  remaining activity at 10 pM: 108%
[4]; [11]
  remaining activity at 1 pM: 90.9%
[4]; PF-04418948, W186A, Mean
  cAMP activity (∆pIC50 from EP2 WT): -2.049
[4]; [6]
  ΔpIC50: -2.05 ± 0.09
[5]; 1 h, PF-04418948 log([M]) -5.00, read-out: % cAMP activity (normalized to WT)
  remaining activity at 10 µM: 14.6%
[5]; [12]
  remaining activity at 1 µM: 35.7%
[5]; Mean
  cAMP activity (∆pIC50 from EP2 WT): -0.316
[5]; single experiments 1st-3rd
  cAMP activity (∆pIC50 from EP2 WT): -0.355 and -0.329 and -0.263
EP2 WT; PF-04418948 log([M]) -7, Fig. 3D, read-out: % cAMP activity (normalized to WT)
  remaining activity at 0.1 µM: 5.55%
EP2 WT; PF-04418948 log([M]) -8, Fig. 3D, read-out: % cAMP activity (normalized to WT)
  remaining activity at 0.01 µM: 44.3%
EP2 WT; PF-04418948 log([M]) -9, Fig. 3D, read-out: % cAMP activity (normalized to WT)
  remaining activity at 0.001 µM: 82.7%
EP2 WT; PF-04418948 log([M]) -10, Fig. 3D, read-out: % cAMP activity (normalized to WT)
  remaining activity at 0.0001 µM: 105%
EP2 WT; PF-04418948 log([M]) -11, Fig. 3D, read-out: % cAMP activity (normalized to WT)
  remaining activity at 10 pM: 101%
EP2 WT; PF-04418948 log([M]) -12, Fig. 3D, read-out: % cAMP activity (normalized to WT)
  remaining activity at 1 pM: 104%
EP2 WT; ligand log([M]) -5, Fig. S7B, read-out: % cAMP activity (normalized to WT)
  remaining activity at 10 µM: 2.66%
EP2 WT; ligand log([M]) -6, Fig. S7B, read-out: % cAMP activity (normalized to WT)
  remaining activity at 1 µM: 2.72%
EP2 WT; ligand log([M]) -7, Fig. S7B, read-out: % cAMP activity (normalized to WT)
  remaining activity at 0.1 µM: 8.2%
EP2 WT; ligand log([M]) -8, Fig. S7B, read-out: % cAMP activity (normalized to WT)
  remaining activity at 0.01 µM: 63.2%
EP2 WT; ligand log([M]) -9, Fig. S7B, read-out: % cAMP activity (normalized to WT)
  remaining activity at 0.001 µM: 96.2%
EP2 WT; ligand log([M]) -10, Fig. S7B, read-out: % cAMP activity (normalized to WT)
  remaining activity at 0.0001 µM: 92.4%
EP2 WT; ligand log([M]) -11, Fig. S7B, read-out: % cAMP activity (normalized to WT)
  remaining activity at 10 pM: 103%
EP2 WT; ligand log([M]) -12, Fig. S7B, read-out: % cAMP activity (normalized to WT)
  remaining activity at 1 pM: 101%
EP2 WT; read-out: % cAMP activity on EP2 (normalized to PF-04418948), ligand log([M]) -5, Fig. S1A
  remaining activity at 10 µM: 2.66%
EP2 WT; read-out: % cAMP activity on EP2 (normalized to PF-04418948), ligand log([M]) -6, Fig. S1A
  remaining activity at 1 µM: 2.72%
EP2 WT; read-out: % cAMP activity on EP2 (normalized to PF-04418948), ligand log([M]) -7, Fig. S1A
  remaining activity at 0.1 µM: 8.2%
EP2 WT; read-out: % cAMP activity on EP2 (normalized to PF-04418948), ligand log([M]) -8, Fig. S1A
  remaining activity at 0.01 µM: 63.2%
EP2 WT; read-out: % cAMP activity on EP2 (normalized to PF-04418948), ligand log([M]) -9, Fig. S1A
  remaining activity at 0.001 µM: 96.2%
EP2 WT; read-out: % cAMP activity on EP2 (normalized to PF-04418948), ligand log([M]) -10, Fig. S1A
  remaining activity at 0.0001 µM: 92.4%
EP2 WT; read-out: % cAMP activity on EP2 (normalized to PF-04418948), ligand log([M]) -11, Fig. S1A
  remaining activity at 10 pM: 103%
EP2 WT; read-out: % cAMP activity on EP2 (normalized to PF-04418948), ligand log([M]) -12, Fig. S1A
  remaining activity at 1 pM: 101%
EP2 WT; cAMP accumulation assay upon PGE2 stimulation, Appendix Fig. S1A
  antagonism profile EP2 versus EP4 (in words): selective antagonists of EP2; also recorded: highly selective for EP2 over EP4
EP2 WT; Appendix Fig. S7A
  cAMP activity (∆pIC50 from EP2 WT): 0.0005 and 0.053 and -0.059
EP2 WT; Fig. 3E
  cAMP activity (∆pIC50 from EP2 WT): 0.043 and 0.00333 and -0.047
EP4 WT; read-out: % cAMP activity EP4 (normalized to Grapiprant), ligand log([M]) -4.00
  remaining activity at 100 µM: 99.1%
EP4 WT; read-out: % cAMP activity EP4 (normalized to Grapiprant), ligand log([M]) -4.70
  remaining activity at […]: 107%
EP4 WT; read-out: % cAMP activity EP4 (normalized to Grapiprant), ligand log([M]) -5.40
  remaining activity at […]: 103%
EP4 WT; read-out: % cAMP activity EP4 (normalized to Grapiprant), ligand log([M]) -6.10
  remaining activity at […]: 106%
EP4 WT; read-out: % cAMP activity EP4 (normalized to Grapiprant), ligand log([M]) -7.49
  remaining activity at 0.03236 µM: 93.7%
EP4 WT; read-out: % cAMP activity EP4 (normalized to Grapiprant), ligand log([M]) -8.89
  remaining activity at 0.001288 µM: 94%
